The text below walks through data of patent US20080242657A1, “Treatment of Tremor with Histamine H3 Inverse Agonists or Hist Amine H3 Antagonists” (priority 2004, published 2008).

The test system of the test is harmaline-induced tremor. The experiment in a line: harmaline-induced tremor model in rats. Type of test: in vivo. The text has this: The identification of a compound as a histamine H3 inverse agonist or a histamine H3 antagonist may be readily determined without undue experimentation by methodology well known in the art. The efficacy of a histamine H3 inverse agonist or a histamine H3 antagonist in treating tremor may be readily determined without undue experimentation by methodology well known in the art, for example the harmaline-induced tremor model in rats, Sinton, et al., Pflugers Archive Eur. J. Phys., 414(1) 31-36 (1989). […] The ability of the histamine H3 inverse agonist or histamine H3 antagonist to be used in the present invention to treat tremor or movement disorders may be determined by these methods.

On to `N#Cc1ccc(-c2cnc(OC3CCN(C4CCCC4)CC3)nc2)cc1` [2-(1-cyclopentylpiperidine-4-yloxy)-5-(4-cyanophenyl)pyrimidine], for which the “reversal of harmaline-induced tremor” value reads like this: (dose of 1 mg/kg) 8.4%; (dose of 3 mg/kg) 63.3%; (dose of 10 mg/kg) 84.4%.
